Data reported in patent publication US8461328B2, “Tricyclic heterocyclic compounds, compositions and methods of use thereof” (Genentech, Inc., priority 2010, dated 2013).

Tests used:
Assay type in all cases: biochemical
JAK1 = target: T1, JAK1 (Homo sapiens, UniProt P23458); assay: JAK1 inhibition (Table 4); details: read-out: JAK1 Ki
T1 construct: made in house; host or cells: SF9 insect cells (baculovirus)

JAK2 = target: T2, JAK2 (Homo sapiens, UniProt O60674); assay: JAK2 inhibition (Table 4); details: read-out: JAK2 Ki
T2 construct: made in house; host or cells: SF9 insect cells (baculovirus)
T2 sequence (O60674 812-1132): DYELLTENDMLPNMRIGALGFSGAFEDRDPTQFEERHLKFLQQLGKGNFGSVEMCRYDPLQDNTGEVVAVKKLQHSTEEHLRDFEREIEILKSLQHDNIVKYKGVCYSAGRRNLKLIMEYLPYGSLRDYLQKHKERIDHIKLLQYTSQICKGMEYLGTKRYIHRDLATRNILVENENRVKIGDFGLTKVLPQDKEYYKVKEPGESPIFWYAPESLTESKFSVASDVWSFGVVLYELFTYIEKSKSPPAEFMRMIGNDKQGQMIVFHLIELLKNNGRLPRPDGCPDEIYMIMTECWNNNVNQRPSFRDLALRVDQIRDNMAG

JAK3 = target: T3, JAK3 (Homo sapiens, UniProt P52333); assay: JAK3 inhibition (Table 4); details: read-out: JAK3 Ki
T3 construct: made in house; host or cells: SF9 insect cells (baculovirus)
T3 sequence (P52333 783-1124): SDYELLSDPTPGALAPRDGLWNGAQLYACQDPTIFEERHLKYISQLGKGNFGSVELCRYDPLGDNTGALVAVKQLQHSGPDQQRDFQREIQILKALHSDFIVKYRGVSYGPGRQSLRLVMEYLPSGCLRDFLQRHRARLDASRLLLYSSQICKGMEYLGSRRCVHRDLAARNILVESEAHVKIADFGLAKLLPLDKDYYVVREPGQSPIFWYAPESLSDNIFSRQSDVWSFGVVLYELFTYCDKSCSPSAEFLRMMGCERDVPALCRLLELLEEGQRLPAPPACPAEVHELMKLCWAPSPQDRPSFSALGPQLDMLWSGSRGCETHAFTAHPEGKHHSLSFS

TYK2 = target: T4, TYK2 (Homo sapiens, UniProt P29597); assay: TYK2 inhibition (Table 4)
T4 construct: made in house; host or cells: SF9 insect cells (baculovirus)
T4 sequence (P29597 873-1187): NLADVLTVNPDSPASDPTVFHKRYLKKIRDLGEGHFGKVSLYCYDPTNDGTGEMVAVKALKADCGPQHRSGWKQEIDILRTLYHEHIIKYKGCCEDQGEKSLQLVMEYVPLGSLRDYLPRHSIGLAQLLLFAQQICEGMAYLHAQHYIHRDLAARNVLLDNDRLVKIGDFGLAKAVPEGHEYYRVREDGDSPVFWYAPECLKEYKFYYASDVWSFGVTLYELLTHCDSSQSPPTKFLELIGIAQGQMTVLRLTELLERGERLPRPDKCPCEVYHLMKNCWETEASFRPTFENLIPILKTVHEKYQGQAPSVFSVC

T1 sequence (P23458 852-1154): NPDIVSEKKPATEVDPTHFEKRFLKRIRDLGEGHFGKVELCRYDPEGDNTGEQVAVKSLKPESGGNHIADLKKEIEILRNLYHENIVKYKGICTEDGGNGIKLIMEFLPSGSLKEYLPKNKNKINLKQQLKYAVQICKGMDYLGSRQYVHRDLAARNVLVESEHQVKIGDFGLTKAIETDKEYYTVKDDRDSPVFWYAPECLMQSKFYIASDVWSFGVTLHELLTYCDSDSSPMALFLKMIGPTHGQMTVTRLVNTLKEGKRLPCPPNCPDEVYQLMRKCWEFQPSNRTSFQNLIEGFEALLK

SMILES | Ki (JAK1) | Ki (JAK2) | Ki (JAK3) | Ki (TYK2)
c1cc2c(ncc3ncn(C4CCOCC4)c32)[nH]1 [Example 468, 1-(Tetrahydro-pyran-4-yl)-1,6-dihydro-1,3,5,6-tetraaza-as-indacene] | 14.4 nM | 46.6 nM | 150 nM | 82.3 nM
c1cncc(Cc2nc3cnc4[nH]ccc4c3n2C2CCOCC2)c1 [Example 469, 2-Pyridin-3-ylmethyl-1-(tetrahydro-pyran-4-yl)-1,6-dihydro-1,3,5,6-tetraaza-as-indacene] | 215 nM | 1450 nM | 475 nM | 1770 nM
Cc1cc(Cc2nc3cnc4[nH]ccc4c3n2C2CCOCC2)on1 [Example 472, 2-(3-Methyl-isoxazol-5-ylmethyl)-1-(tetrahydro-pyran-4-yl)-1,6-dihydro-1,3,5,6-tetraaza-as-indacene] | 57.3 nM | 694 nM | 405 nM | 389 nM
O=C1CN(Cc2nc3cnc4[nH]ccc4c3n2C2CCOCC2)CCN1 [Example 473, 4-[1-(Tetrahydro-pyran-4-yl)-1,6-dihydro-1,3,5,6-tetraaza-as-indacen-2-ylmethyl]-piperazin-2-one] | 447 nM | 1700 nM | 2010 nM | 1700 nM
CS(=O)(=O)Cc1nc2cnc3[nH]ccc3c2n1C1CCN(CCC#N)CC1 [Example 491, 3-[4-(2-Methanesulfonylmethyl-6H-1,3,5,6-tetraaza-as-indacen-1-yl)-piperidin-1-yl]-propionitrile] | 9.7 nM | 34 nM | 23.6 nM | 95.8 nM
CC(=O)NCc1nc2cnc3[nH]ccc3c2n1C1CCN(CCC#N)CC1 [Example 492, N-{1-[1-(2-Cyano-ethyl)-piperidin-4-yl]-1,6-dihydro-1,3,5,6-tetraaza-as-indacen-2-ylmethyl}-acetamide] | 16 nM | 86.5 nM | 200 nM | 210 nM
CCOC(=O)NCc1nc2cnc3[nH]ccc3c2n1C1CCN(CCC#N)CC1 [Example 493, {1-[1-(2-Cyano-ethyl)-piperidin-4-yl]-1,6-dihydro-1,3,5,6-tetraaza-as-indacen-2-ylmethyl}-carbamic acid ethyl ester] | 11.3 nM | 36.2 nM | 80.2 nM | 121 nM

Other lines, results leading:

Ki (JAK1) | Ki (JAK2) | Ki (JAK3) | Ki (TYK2) | SMILES
32.3 nM | 77.8 nM | 429 nM | 230 nM | c1cc2c(ncc3nnn(C4CCOCC4)c32)[nH]1 [Example 467, 1-(Tetrahydro-pyran-4-yl)-1,6-dihydro-1,2,3,5,6-pentaaza-as-indacene]
196 nM | 557 nM | 64.8 nM | 357 nM | O=c1ccn(Cc2nc3cnc4[nH]ccc4c3n2C2CCOCC2)c(=O)[nH]1 [Example 470, 1-[1-(Tetrahydro-pyran-4-yl)-1,6-dihydro-1,3,5,6-tetraaza-as-indacen-2-ylmethyl]-1H-pyrimidine-2,4-dione]
278 nM | 781 nM | 727 nM | 793 nM | Cc1n[nH]c(C)c1CCc1nc2cnc3[nH]ccc3c2n1C1CCOCC1 [Example 471, 2-[2-(3,5-Dimethyl-1H-pyrazol-4-yl)-ethyl]-1-(tetrahydro-pyran-4-yl)-1,6-dihydro-1,3,5,6-tetraaza-as-indacene]
441 nM | 181 nM | 323 nM | 1290 nM | O=C(O)[C@H]1C[C@@H](n2cnc3cnc4[nH]ccc4c32)C1 [Example 484, 3-(6H-1,3,5,6-Tetraaza-as-indacen-1-yl)-cyclobutanecarboxylic acid]
4.73 nM | 23.5 nM | 18.6 nM | 61.2 nM | N#CCCN1CCC(n2c(CNC(=O)c3cccnc3)nc3cnc4[nH]ccc4c32)CC1 [Example 494, N-{1-[1-(2-Cyano-ethyl)-piperidin-4-yl]-1,6-dihydro-1,3,5,6-tetraaza-as-indacen-2-ylmethyl}-nicotinamide]
